Results from patent US11807634B2, “Cyclopropyl dihydroquinoline sulfonamide compounds” (AMGEN INC., priority 2020, dated 2023).

test system: CYP3A4; experiment: Human CYP 3A4 induction assay (mRNA, cryopreserved human hepatocytes); type: in vitro ADME; details: human hepatocytes, 10 uM test compound, 72 hours, mRNA, percent of control (rifampin positive control)
Experimental: Human CYP 3A4 Induction Assay
Cryopreserved human hepatocytes were seeded in 96-well collagen coated plates at 70,000 cells per well in hepatocyte plating media (HPM, final concentrations: 1× Dulbecco's Modified Eagle's Medium, 0.1 μM dexamethasone, 10% fetal bovine serum, 1× ITS, 1×PSG) followed by incubation at 37° C. under 5% CO2 and 90% relative humidity for 2 days to allow hepatocytes to form a confluent layer. On Day 3, hepatocytes were treated with either test compound or rifampin (20 μM, positive control for CYP3A induction) prepared in hepatocyte incubation media ((HIM, final concentrations: 1× William's Medium E, 0.1 μM dexamethasone, 1×ITS, 1×PSG). Treatment was performed for 72 hours with either 2 concentrations (2 μM or 10 μM) or a range of concentrations (0.001 μM to 100 μM) of the test compound to obtain full dose-response curve. Fresh media containing the relevant concentrations of the test compound was replaced every day until the samples were processed. After 72 hours of incubation, samples were processed for mRNA analysis using bDNA technology using manufacturer's instructions (Affymetrix, Fremont, Calif.). Cell viability was tested at the end of the experiment using MTT assay kit (Roche Diagnostics, Basel, Switzerland). Data was analyzed and presented as percent of control (POC) and Emax and EC50 obtained when appropriate according to guidance from Center for Drug Evaluation and Research (CDER), 2006, Guidance for Industry, Drug Interaction Studies—Study Design, Data Analysis, and Implications for Dosing and Labeling.
Cryopreserved human hepatocytes were seeded in 96-well collagen coated plates at 70,000 cells per well in hepatocyte plating media (HPM, final concentrations: 1× Dulbecco's Modified Eagle's Medium, 0.1 μM dexamethasone, 10% fetal bovine serum, 1×ITS, 1×PSG) followed by incubation at 37° C. under 5% CO2 and 90% relative humidity for 2 days to allow hepatocytes to form a confluent layer. On Day 3, hepatocytes were treated with either test compound or rifampin (20 μM, positive control for CYP3A induction) prepared in hepatocyte incubation media ((HIM, final concentrations: 1× William's Medium E, 0.1 μM dexamethasone, 1×ITS, 1×PSG). Treatment was performed for 72 hours with either 2 concentrations (2 μM or 10 μM) or a range of concentrations (0.001 μM to 100 μM) of the test compound to obtain full dose-response curve. Fresh media containing the relevant concentrations of the test compound was replaced every day until the samples were processed. After 72 hours of incubation, samples were processed for mRNA analysis using bDNA technology using manufacturer's instructions (Affymetrix, Fremont, Calif.). Cell viability was tested at the end of the experiment using MTT assay kit (Roche Diagnostics, Basel, Switzerland). Data was analyzed and presented as percent of control (POC) and Emax and EC50 obtained when appropriate, as described in Halladay, J. et al, 2012, An “all-inclusive” 96-well cytochrome P450 induction method: Measuring enzyme activity, mRNA levels, protein levels, and cytotoxicity from one well using cryopreserved human hepatocytes, Pharmacological and Toxicological Methods, 66:270-275.
The cytochrome P450 (CYP) is a well-known superfamily of enzymes that are responsible for the oxidative and reductive metabolic transformation of medications used in clinical practice. In addition, the CYP enzymes are commonly associated with causing many clinically relevant drug-drug interactions. Of the CYP enzymes, CYP3A4 is not only the most prevalent CYP enzyme in the liver and intestine, but is responsible for metabolism and elimination of approximately 50% of marketed drugs. In addition, CYP3A4 activity can be induced (or increased) or inhibited (decreased) in response to administration of certain drugs, thereby affecting concentrations of their own or certain concomitant drugs present in the body. […]

SMILES | CYP3A4 mRNA Induct Hu 10 uM POC [%]
COc1cc([C@H]2C[C@@H]2C(F)(F)F)c(C)cc1-n1c(=O)ccc2cc(S(=O)(=O)Nc3ncccn3)ccc21 (atropisomer, axis not shown; (P)) [Example 29, (P)-1-(2-methoxy-5-methyl-4-((1S,2S)-2-(trifluoromethyl)cyclopropyl)phenyl)-2-oxo-N-(pyrimidin-2-yl)-1,2-dihydroquinoline-6-sulfonamide] | 74.53
COc1cc([C@H]2C[C@@H]2C2CC2)c(F)cc1-n1c(=O)ccc2cc(S(=O)(=O)Nc3ccon3)ccc21 (atropisomer, axis not shown; (P)) [Example 31, (P)-1-(4-((1R,2S)-[1,1′-bi(cyclopropan)]-2-yl)-5-fluoro-2-methoxyphenyl)-N-(isoxazol-3-yl)-2-oxo-1,2-dihydroquinoline-6-sulfonamide] | 100.7
COc1cc([C@H]2C[C@@H]2C(F)(F)F)c(F)cc1-n1c(=O)ccc2cc(S(=O)(=O)Nc3ncco3)ccc21 (atropisomer, axis not shown; (P)) [Example 36, (P)-1-(5-fluoro-2-methoxy-4-((1S,2S)-2-(trifluoromethyl)cyclopropyl)phenyl)-N-(oxazol-2-yl)-2-oxo-1,2-dihydroquinoline-6-sulfonamide] | 102.8
COc1cc([C@H]2C[C@@H]2C(F)(F)F)c(C#N)cc1-n1c(=O)ccc2cc(S(=O)(=O)Nc3ccon3)ccc21 (atropisomer, axis not shown; (P)) [Example 37, (P)-1-(5-cyano-2-methoxy-4-((1S,2S)-2-(trifluoromethyl)cyclopropyl)phenyl)-N-(isoxazol-3-yl)-2-oxo-1,2-dihydroquinoline-6-sulfonamide] | 16.39
COc1cc([C@@H]2C[C@H]2C(F)(F)F)ccc1-n1c(=O)ccc2cc(S(=O)(=O)Nc3ccon3)c(F)cc21 (atropisomer, axis not shown; (P)) [Example 47, (P)-7-fluoro-N-(isoxazol-3-yl)-1-(2-methoxy-4-((1R,2R)-2-(trifluoromethyl)cyclopropyl)phenyl)-2-oxo-1,2-dihydroquinoline-6-sulfonamide] | 14.245
COc1cc([C@H]2C[C@@H]2C(F)(F)F)ccc1-n1c(=O)ccc2cc(S(=O)(=O)Nc3ccon3)c(F)cc21 (atropisomer, axis not shown; (P)) [Example 48, (P)-7-fluoro-N-(isoxazol-3-yl)-1-(2-methoxy-4-((1S,2S)-2-(trifluoromethyl)cyclopropyl)phenyl)-2-oxo-1,2-dihydroquinoline-6-sulfonamide] | 54.02
O=c1ccc2cc(S(=O)(=O)Nc3ccon3)ccc2n1-c1cc(F)c([C@H]2C[C@@H]2C(F)(F)F)cc1OC1CC1 (single isomer, unassigned) [Example 41] | 13.21
COc1cc(C2CC2)c(F)cc1-n1c(=O)ccc2cc(S(=O)(=O)Nc3ccon3)ccc21 [A, 1-(4-cyclopropyl-5-fluoro-2-methoxyphenyl)-N-(isoxazol-3-yl)-2-oxo-1,2-dihydroquinoline-6-sulfonamide, reference compound] | 84.31

Other lines, results leading:

CYP3A4 mRNA Induct Hu 10 uM POC [%] | SMILES
12.69 | COc1cc([C@@H]2C[C@H]2C(F)(F)F)c(F)cc1-n1c(=O)ccc2cc(S(=O)(=O)Nc3ncns3)ccc21 (atropisomer, axis not shown; (P)) [Example 34, (P)-1-(5-fluoro-2-methoxy-4-((1R,2R)-2-(trifluoromethyl)cyclopropyl)phenyl)-2-oxo-N-(1,2,4-thiadiazol-5-yl)-1,2-dihydroquinoline-6-sulfonamide]
53.28 | COc1cc([C@@H]2C[C@H]2C(F)(F)F)c(F)cc1-n1c(=O)ccc2cc(S(=O)(=O)Nc3ncco3)ccc21 (atropisomer, axis not shown; (P)) [Example 35, (P)-1-(5-fluoro-2-methoxy-4-((1R,2R)-2-(trifluoromethyl)cyclopropyl)phenyl)-N-(oxazol-2-yl)-2-oxo-1,2-dihydroquinoline-6-sulfonamide]
29.06 | COc1cc([C@@H]2C[C@H]2C(F)(F)F)ccc1-n1c(=O)ccc2cc(S(=O)(=O)Nc3ccon3)ccc21 (atropisomer, axis not shown; (P)) [Example 38, (P)-N-(isoxazol-3-yl)-1-(2-methoxy-4-((1R,2R)-2-(trifluoromethyl)cyclopropyl)phenyl)-2-oxo-1,2-dihydroquinoline-6-sulfonamide]
38.35 | COc1cc([C@H]2C[C@@H]2C(F)(F)F)ccc1-n1c(=O)ccc2cc(S(=O)(=O)Nc3ccon3)ccc21 (atropisomer, axis not shown; (P)) [Example 39, (P)-N-(isoxazol-3-yl)-1-(2-methoxy-4-((1S,2S)-2-(trifluoromethyl)cyclopropyl)phenyl)-2-oxo-1,2-dihydroquinoline-6-sulfonamide]
26.89 | COc1cc([C@@H]2C[C@H]2C(F)(F)F)c(F)cc1-n1c(=O)cc(F)c2cc(S(=O)(=O)Nc3ccon3)ccc21 (atropisomer, axis not shown; (P)) [Example 44, (P)-4-fluoro-1-(5-fluoro-2-methoxy-4-((1R,2R)-2-(trifluoromethyl)cyclopropyl)phenyl)-N-(isoxazol-3-yl)-2-oxo-1,2-dihydroquinoline-6-sulfonamide]
69.11 | COc1cc([C@H]2C[C@@H]2C(F)(F)F)c(Cl)cc1-n1c(=O)ccc2cc(S(=O)(=O)Nc3cccnn3)ccc21 (single isomer, unassigned) [Example 15]
64.14 | COc1cc([C@H]2C[C@@H]2C(F)(F)F)c(C)cc1-n1c(=O)ccc2cc(S(=O)(=O)Nc3ccon3)ccc21 (single isomer, unassigned) [Example 27]
53.03 | COc1cc([C@H]2C[C@@H]2C(F)(F)F)c(F)cc1-n1c(=O)ccc2cc(S(=O)(=O)Nc3ccon3)c(F)cc21 (single isomer, unassigned) [Example 46]
